The subject of data set [1] is patients taking organic nitrates. The following applies: in combination with organic nitrates; cited from earlier work.
In a further data set the test system is PDE4. The following applies: package insert; cited from earlier work.
The next data set deals with PDE1. To be noted: package insert; cited from earlier work.
The next data set concerns PDE3. The following applies: package insert; cited from earlier work.
In another data set the target is PDE2 (Homo sapiens, UniProt O00408). The following applies: package insert; cited from earlier work.
Another data set concerns the target T1, Bovine PDE6 (Bos taurus, UniProt P11541+P23439).
T1 construct: Hypotonic extracts were prepared by suspending isolated ROS; tissue Dr. N. Virmaux, INSERM U338, Strasbourg; host or cells: bovine retina, rod outer segment hypotonic extract
T1 sequence (P11541 2-856 limits assumed): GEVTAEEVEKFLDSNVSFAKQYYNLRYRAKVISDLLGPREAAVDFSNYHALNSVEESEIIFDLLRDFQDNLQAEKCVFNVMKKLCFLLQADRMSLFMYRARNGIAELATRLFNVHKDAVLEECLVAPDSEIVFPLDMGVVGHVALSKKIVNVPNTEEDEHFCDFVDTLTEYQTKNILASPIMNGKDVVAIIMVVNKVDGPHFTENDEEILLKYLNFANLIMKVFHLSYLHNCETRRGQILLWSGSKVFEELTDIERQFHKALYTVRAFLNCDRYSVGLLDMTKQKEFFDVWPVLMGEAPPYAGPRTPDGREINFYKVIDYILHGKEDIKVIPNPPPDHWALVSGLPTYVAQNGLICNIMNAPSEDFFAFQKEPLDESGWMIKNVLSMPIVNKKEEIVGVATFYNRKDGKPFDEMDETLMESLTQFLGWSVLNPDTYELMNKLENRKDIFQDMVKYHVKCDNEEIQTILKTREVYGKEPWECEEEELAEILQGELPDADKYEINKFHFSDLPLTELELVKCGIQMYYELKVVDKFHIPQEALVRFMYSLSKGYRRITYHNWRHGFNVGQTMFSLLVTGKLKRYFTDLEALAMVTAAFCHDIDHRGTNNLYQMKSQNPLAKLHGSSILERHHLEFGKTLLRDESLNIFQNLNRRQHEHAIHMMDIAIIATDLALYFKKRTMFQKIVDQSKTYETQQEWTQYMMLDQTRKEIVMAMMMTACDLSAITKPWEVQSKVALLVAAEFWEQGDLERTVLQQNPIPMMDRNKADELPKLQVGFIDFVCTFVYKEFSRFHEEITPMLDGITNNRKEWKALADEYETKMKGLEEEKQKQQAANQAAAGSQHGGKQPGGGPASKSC
T1 sequence (P23439 2-850 limits assumed): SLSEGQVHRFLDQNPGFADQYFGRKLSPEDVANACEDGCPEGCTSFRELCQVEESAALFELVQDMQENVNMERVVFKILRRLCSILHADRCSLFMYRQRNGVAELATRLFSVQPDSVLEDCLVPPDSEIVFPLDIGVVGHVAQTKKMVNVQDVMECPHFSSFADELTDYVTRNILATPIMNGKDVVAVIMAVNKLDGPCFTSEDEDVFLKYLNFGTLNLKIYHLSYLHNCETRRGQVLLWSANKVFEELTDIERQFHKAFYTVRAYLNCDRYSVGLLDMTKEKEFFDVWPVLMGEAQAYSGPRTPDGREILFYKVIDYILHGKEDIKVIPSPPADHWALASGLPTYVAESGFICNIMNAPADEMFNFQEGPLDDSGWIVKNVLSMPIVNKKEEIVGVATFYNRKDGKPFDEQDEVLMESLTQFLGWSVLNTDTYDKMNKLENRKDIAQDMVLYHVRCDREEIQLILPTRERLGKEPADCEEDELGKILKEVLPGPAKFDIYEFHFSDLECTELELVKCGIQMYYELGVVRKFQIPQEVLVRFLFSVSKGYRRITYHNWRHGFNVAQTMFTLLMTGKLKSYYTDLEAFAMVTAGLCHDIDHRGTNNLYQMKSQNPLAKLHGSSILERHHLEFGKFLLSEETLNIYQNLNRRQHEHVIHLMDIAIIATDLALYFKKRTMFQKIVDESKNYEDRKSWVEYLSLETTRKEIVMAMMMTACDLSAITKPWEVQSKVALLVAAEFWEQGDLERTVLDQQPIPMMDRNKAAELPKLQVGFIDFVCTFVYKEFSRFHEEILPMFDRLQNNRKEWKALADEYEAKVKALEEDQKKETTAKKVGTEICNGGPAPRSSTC
T1 sequence (P04972 1-87 partner): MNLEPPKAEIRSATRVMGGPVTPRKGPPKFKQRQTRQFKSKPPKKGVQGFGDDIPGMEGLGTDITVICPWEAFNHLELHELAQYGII
The data set can be described thus: PDE6 enzyme inhibition, IC50 determination. To be noted: for PDE6/PDE5: ratio of IC50 versus PDE6 to IC50 versus PDE5. It counts as biochemical. On the procedure: Bovine PDE6 was supplied by Dr. N. Virmaux, INSERM U338, Strasbourg. Bovine retinas were prepared as described by Virmaux et al., FEBS Letters, 12(6), pp. 325-328 (1971) and see also, A. Sitaramayya et al., Exp. Eye Res., 25, pp. 163-169 (1977). Briefly, unless stated otherwise, all operations were done in the cold and in dim red light. Eyes were kept in the cold and in the dark for up to four hours after slaughtering.
Preparation of bovine retinal outer segment (ROS) basically followed procedures described by Schichi et al., J. Biol. Chem., 224:529 (1969). In a typical experiment, 35 bovine retinas were ground in a mortar with 35 mL 0.066 M phosphate buffer, pH 7.0, made up to 40% with sucrose, followed by homogenization in a Potter homogenizer (20 up and down strokes). The suspension was centrifuged at 25,000×g for 20 minutes. The pellet was homogenized in 7.5 mL 0.006 M phosphate buffer (40% in sucrose), and carefully layered under 7.5 mL of phosphate buffer (containing no sucrose). Centrifugation was conducted in a swing-out rotor at 45,000×g for 20 minutes, and produced a pellet which is black at the bottom, and also a red band at the interface 0.066 M. phosphate—40% sucrose/0.066 M phosphate (crude ROS). The red material at the interface was removed, diluted with phosphate buffer, spun down to a pellet, and redistributed in buffered 40% sucrose as described above. This procedure was repeated 2 or 3 times until no pellet was formed. The purified ROS was washed in phosphate buffer and finally spun down to a pellet at 25,000×g for 20 minutes. All materials were then kept frozen until used.
Hypotonic extracts were prepared by suspending isolated ROS in 10 mM Tris-Cl pH 7.5, 1 mM EDTA, and 1 mM dithioerythritol, followed by centrifugation at 100,000×g for 30 minutes.
The preparation was reported to have a specific activity of about 35 nmoles cGMP hydrolyzed per minute per milligram protein.
Biophys. Acta, 384:430 (1975).

The target of the next data set is T2, human PDE5 (Homo sapiens, UniProt O76074).
T2 construct: made in house; host or cells: Saccharomyces cerevisiae protease-deficient strain BJ2-54 (ATCC 74465)
The data set can be described thus: PDE5 enzyme inhibition, IC50 determination. It counts as biochemical.

Chain of PDE2 (O00408 whole entry): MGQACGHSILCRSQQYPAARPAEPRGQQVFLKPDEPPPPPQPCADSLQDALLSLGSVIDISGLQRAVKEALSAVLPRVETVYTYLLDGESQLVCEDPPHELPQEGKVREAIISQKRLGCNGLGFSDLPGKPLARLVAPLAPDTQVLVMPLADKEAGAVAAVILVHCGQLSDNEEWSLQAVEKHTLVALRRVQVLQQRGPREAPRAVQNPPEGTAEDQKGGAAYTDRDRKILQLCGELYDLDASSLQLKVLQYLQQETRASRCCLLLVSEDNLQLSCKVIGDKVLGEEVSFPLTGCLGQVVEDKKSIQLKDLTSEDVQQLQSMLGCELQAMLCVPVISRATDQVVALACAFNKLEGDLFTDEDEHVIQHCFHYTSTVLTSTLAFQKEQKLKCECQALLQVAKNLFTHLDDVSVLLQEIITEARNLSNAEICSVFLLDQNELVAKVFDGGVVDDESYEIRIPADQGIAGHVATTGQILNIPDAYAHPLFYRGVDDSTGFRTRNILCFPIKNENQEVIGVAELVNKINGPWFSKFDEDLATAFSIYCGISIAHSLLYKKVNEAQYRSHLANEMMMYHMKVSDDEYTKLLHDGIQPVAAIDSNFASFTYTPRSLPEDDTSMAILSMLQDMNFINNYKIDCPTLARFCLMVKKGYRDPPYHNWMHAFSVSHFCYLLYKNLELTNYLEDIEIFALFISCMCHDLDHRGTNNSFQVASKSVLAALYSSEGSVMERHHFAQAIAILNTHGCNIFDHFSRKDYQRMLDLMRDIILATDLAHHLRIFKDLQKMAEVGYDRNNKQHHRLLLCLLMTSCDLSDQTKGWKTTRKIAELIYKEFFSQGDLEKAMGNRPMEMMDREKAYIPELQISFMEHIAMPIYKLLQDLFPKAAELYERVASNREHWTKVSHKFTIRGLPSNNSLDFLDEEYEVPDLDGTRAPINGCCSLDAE

`CCCc1nn(C)c2c(=O)[nH]c(-c3cc(S(=O)(=O)N4CCN(C)CC4)ccc3OCC)nc12` [sildenafil]: in data set [1], the “effect on hypotensive effects of nitrates” value was “potentiates the hypotensive effects of nitrates”. Besides, the “more potent inhibitor of PDE5 than PDE4” value in the data set on PDE4 is on record as “greater than 1,000 fold”. Besides, the “more potent inhibitor of PDE5 than PDE1” value with PDE1 is “greater than 80 fold”. For the same compound, in the data set with PDE3, the “more potent inhibitor of PDE5 than PDE3” value is on record as “greater than 1,000 fold”. For the same compound, at PDE2, the “more potent inhibitor of PDE5 than PDE2” value is “greater than 1,000 fold”.
The IC50 is the midpoint of a concentration-inhibition curve. Read a low IC50 as inhibition by little substance. For the compound `O=C1C2Cc3c([nH]c4ccccc34)C(c3ccc4c(c3)OCO4)N2C(=O)CN1Cc1ccc(NS(=O)(=O)C(F)(F)F)cc1` (centres unmarked) [Compound 1], the values for the IC50 against Bovine PDE6 and against human PDE5 were 663 nM and 5 nM, respectively. Moreover, on Bovine PDE6, the PDE6/PDE5 stood at 133.
In the same order, the values of `O=C1C2Cc3c([nH]c4ccccc34)C(c3ccc4c(c3)OCO4)N2C(=O)CN1Cc1cccc(NS(=O)(=O)C(F)(F)F)c1` (centres unmarked) [Compound 3] are 420 nM, 2 nM and 210.
On to `CC1NC(=O)C2Cc3c([nH]c4ccccc34)C(c3ccc4c(c3)OCO4)N2C1=O` (centres unmarked) [Compound 4], for which, at Bovine PDE6, the half-maximal inhibitory concentration (IC50) was 729 nM and the PDE6/PDE5 is 146. Also, the midpoint of inhibition on human PDE5, the IC50, lay at 5 nM.
